Tests used:
Tankyrase 1 (TNKS1) = molecular target: T1, Tankyrase 1 (TNKS1) (Homo sapiens, UniProt O95271); experiment: μHTS-TNKS-IWR2 TR-FRET Binding Assay (Example 118), His6-TNKS1
T1 construct: His6-TNKS1, MW=28.2 KDa (construct: 1088-1327, 1266M)
Protocol: (§1) μHTS-TNKS-IWR2 TR-FRET Binding Assay (10 μL/well in BD1536-well plate, a single point)
(§2) Reagents and Stock Solutions
(§3) Biotin-4-((1S,2R,6S,7R)-3,5-Dioxo-4-aza-tricyclo[5.2.1.0*2,6]dec-8-en-4-yl)-N-(4-methyl-quinolin-8-yl)-benzamide (Biotin-IWR2): 10 mM Biotin-IWR2 stock in DMSO, stored at −20° C.
(XAV939) in DMSO, stored at −20° C.
(§4) Assay buffer 1a (AB1a) for TNKS dilution: 50 mM Tris, pH 7.4, 100 mM sodium chloride solution, 1 mM magnesium chloride solution, 1 mM DL-dithiothreitol solution, 0.2 mg/mL bovine serum albumin solution, 0.025% NP-40.
(§5) Assay buffer 1b (AB1b) for Biotin-IWR2 dilution: 50 mM Tris, pH 7.4, 100 mM sodium chloride solution, 1 mM magnesium chloride solution, 1 mM DL-dithiothreitol solution, 0.2 mg/mL bovine serum albumin solution, 0.05% NP-40
(§6) Assay buffer 1c (AB1c) for compound dilution: 50 mM Tris, pH 7.4, 100 mM sodium chloride solution, 1 mM magnesium chloride solution, 1 mM DL-dithiothreitol solution, 0.2 mg/mL bovine serum albumin solution
(§7) Assay buffer 2 (AB2) for Eu/APC: 50 mM Tris, pH 7.4, 100 mM sodium chloride solution, 1 mM magnesium chloride solution, 0.2 mg/mL bovine serum albumin solution
(§8) Reagent Stock Solution Preparation
(§9) Prepare BLANK well stock solution: 5% DMSO/AB1b buffer
(§10) Prepare TNKS 1 stock solution (5× stock): 300 nM TNKS in AB1a buffer. (Alternatively, use TNKS2 or PARP1 stock solutions.)
Transfer 3 μL/well of above solution (solution 1,2,3) to an empty assay plate (BD1536-well plate) as follows: • TOTAL and cpd wells: Solution 1 (Biotin-IWR2): • BLANK wells: Solution 2 (No Biotin-IWR2): • POSITIVE CONTROL wells: Solution 3 (Biotin-IWR2+XAV939)
(§11) Transfer 3 μL/well of the above diluted compound solutions or compound dilution buffer to the above assay plate. Add 2 μL/well of 300 nM TNKS stock solution (4) to every well in the above assay plate. Centrifuge the assay plate at 2100 rpm for 2 min. Incubate the assay plate at 26° C. for 30 minutes. Add 2 μL/well 3.5 nMEu/50 nM APC solution (5) to every well in the above assay plate. Centrifuge the assay plate at 2100 rpm for 2 min. Incubate the assay plate at 26° C. for 60 min.

tankyrase 2 (TNKS2) = molecular target: T2, tankyrase 2 (TNKS2) (Homo sapiens, UniProt Q9H2K2); experiment: μHTS-TNKS-IWR2 TR-FRET Binding Assay (Example 118), His6-TNKS2 substituted; details: procedure in Example 118 with His6-TNKS2
T2 construct: His6-tankyrase 2 (construct: 934-1166) (His6-TNKS2)
T2 sequence (Q9H2K2 934-1166): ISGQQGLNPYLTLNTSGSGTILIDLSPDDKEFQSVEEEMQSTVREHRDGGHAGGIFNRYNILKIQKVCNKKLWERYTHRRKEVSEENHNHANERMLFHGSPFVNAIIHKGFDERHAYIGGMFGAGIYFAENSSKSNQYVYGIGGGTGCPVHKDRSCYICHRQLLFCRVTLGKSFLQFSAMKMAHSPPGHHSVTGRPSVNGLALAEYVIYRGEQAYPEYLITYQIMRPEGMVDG
Protocol: as §1, §2
Tankyrase 1 (TNKS1): 184.3 μM=5.2 mg/mL His6-TNKS1, MW=28.2 KDa (construct: 1088-1327, 1266M) in 20 mM Tris pH 8, 150 mM NaCl, 10% glycerol, and 0.5 mM TCEP. Alternatively, His6-tankyrase 2 (construct: 934-1166) (His6-TNKS2) or His6-PARP1 (full length) can be substituted for His6-TNKS 1.
as §3
Positive control: 10 mM 2-(4-Trifluoromethyl-phenyl)-3,5,7,8-tetrahydro-thiopyrano[4,3-d]pyrimidin-4-one (XAV939) in DMSO, stored at −20° C.
APC-anti-His Ab: 8.50 μM SL-APC, 8.26 μM anti-6His antibody-SureLight APC (Columia Bioscience, Catalog Number D3-1711, Lot Number N01010-AAH04)
Assay plate: BD 1536-well, clear/black plate (Catalog Number 353255)
as §4, §5, §6, §7, §8
Prepare Biotinylated IWR2 stock solution (3.33× stock) for TOTL and compound wells: 200 nM Biotin-IWR2 in 5% DMSO/AB1b buffer
as §9
Prepare POSITIVE CONTROL well stock solution (3.33× stock): 200 nM XAV939 in 200 nM Biotin-IWR2/5% DMSO/AB1b buffer
as §10
Prepare Eu/APC stock solution (5× stock): 3.5 nM Eu-SA/50 nM APC-His6Ab in AB2 buffer.
Add 25 μL/well 1.5% DMSO/AB1c buffer in each compound well to the compound concentration at 74 μM in 8.8% DMSO/AB1c buffer or in the 2 μL DMSO CONTROL wells (BLANK, TOTAL and POSITIVE wells) in the compound plate. Transfer 3 μL/well of above solution (solution 1,2,3) to an empty assay plate (BD1536-well plate) as follows: • TOTAL and cpd wells: Solution 1 (Biotin-IWR2): • BLANK wells: Solution 2 (No Biotin-IWR2): • POSITIVE CONTROL wells: Solution 3 (Biotin-IWR2+XAV939)
as §11, with “60 min. Read the assay plate immediately at excitation wavelength of 330 nm and emission wavelength of […] in time resolved fluorescence mode.” for “60 min.”
XAV939 (+ve control): 60 nM at ˜70% Inhibition
General Library compounds: 22.23 μM in 4% DMSO

T1 sequence (O95271 1088-1327): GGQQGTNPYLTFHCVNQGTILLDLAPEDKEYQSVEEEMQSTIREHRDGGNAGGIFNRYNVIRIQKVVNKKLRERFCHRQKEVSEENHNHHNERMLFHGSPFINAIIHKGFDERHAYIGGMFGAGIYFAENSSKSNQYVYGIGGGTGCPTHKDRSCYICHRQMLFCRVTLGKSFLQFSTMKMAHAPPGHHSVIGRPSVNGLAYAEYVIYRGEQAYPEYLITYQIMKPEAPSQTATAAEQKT

Row | SMILES | IC50 (Tankyrase 1 (TNKS1)) [nM] | IC50 (tankyrase 2 (TNKS2)) [nM]
1 | Cn1ncc2c(=O)[nH]c(-c3ccc(C(F)(F)F)cc3)nc21 [Compound I-4, 1-methyl-6-[4-(trifluoromethyl)phenyl]-5H-pyrazolo[3 4-d]pyrimidin-4-one] | 25 | 34.5
2 | Cn1ncc2c(=O)[nH]c(N3CCN(c4nccs4)CC3)nc21 [Compound I-38, 1-methyl-6-(4-thiazol-2-ylpiperazin-1-yl)-5H-pyrazolo[3 4-d]pyrimidin-4-one] | 504 | 598
3 | COCCOc1cc(F)c(N2CCN(c3nc4c(cnn4C)c(=O)[nH]3)CC2)c(F)c1 [Compound I-1, 6-[4-[2 6-difluoro-4-(2-methoxyethoxy)phenyl]piperazin-1-yl]-1-methyl-5H-pyrazolo[3 4-d]pyrimidin-4-one] | 7.6 | 24.4
4 | Cn1ncc2c(=O)[nH]c(N3CCN(c4ccccc4F)CC3)nc21 [Compound I-3, 6-[4-(2-fluorophenyl)piperazin-1-yl]-1-methyl-5H-pyrazolo[3 4-d]pyrimidin-4-one] | 27 | 34.4
5 | Cn1ncc2c(=O)[nH]c(N3CCN(c4ccc(S(N)(=O)=O)cc4F)CC3)nc21 [Compound I-48, 3-fluoro-4-[4-(1-methyl-4-oxo-5H-pyrazolo[3 4-d]pyrimidin-6-yl)piperazin-1-yl]benzenesulfonamide] | 34 | 49.2
6 | Cn1ncc2c(=O)[nH]c(N3CCN(c4c(F)cc(N)cc4F)CC3)nc21 [Compound I-54, 6-[4-(4-amino-2 6-difluoro-phenyl)piperazin-1-yl]-1-methyl-5H-pyrazolo[3 4-d]pyrimidin-4-one] | 21 | 25
7 | O=c1[nH]c(N2CCC(c3ccc(F)cc3)CC2)cc2[nH]ncc12 [Compound I-11, 6-[4-(4-fluorophenyl)-1-piperidyl]-1 5-dihydropyrazolo[4 3-c]pyridin-4-one] | 108 | 159
8 | CCC(=O)c1cc(F)c(N2CCN(c3nc4c(cnn4C)c(=O)[nH]3)CC2)c(F)c1 [Compound I-45, 6-[4-(2 6-difluoro-4-propanoyl-phenyl)piperazin-1-yl]-1-methyl-5H-pyrazolo[3 4-d]pyrimidin-4-one] | 28 | 33
9 | Cn1ncc2c(=O)[nH]c(N3CCN(c4ccc(F)c(C(F)(F)F)c4)CC3)nc21 [Compound I-39, 6-[4-(4-fluoro-3-(trifluoromethyl)phenyl]piperazin-1-yl]-1-methyl-5H-pyrazolo[3 4-d]pyrimidin-4-one] | 331 | 303
10 | O=c1[nH]c(N2CCN(c3ccccc3F)CC2)nc2[nH]ncc12 [Compound I-10, 6-[4-(2-fluorophenyl)piperazin-1-yl]-1 5-dihydropyrazolo[3 4-d]pyrimidin-4-one] | 147 | 376
11 | Cn1ncc2c(=O)[nH]c(N3CCN(c4ccc(C(=O)O)cc4F)CC3)nc21 [Compound I-40, 3-fluoro-4-[4-(1-methyl-4-oxo-5H-pyrazolo[3 4-d]pyrimidin-6-yl)piperazin-1-yl]benzoic acid] | 41 | 39.4
12 | Cn1ncc2c(=O)[nH]c(N3CCN(c4ccc(F)cc4F)CC3)cc21 [Compound I-16, 6-[4-(2 4-difluorophenyl)piperazin-1-yl]-1-methyl-5H-pyrazolo[4 3-c]pyridin-4-one] | 48 | 47.4
13 | Cn1ncc2c(=O)[nH]c(N3CCC(C#N)(c4ccccn4)CC3)nc21 [Compound I-52, 1-(1-methyl-4-oxo-5H-pyrazolo[3 4-d]pyrimidin-6-yl)-4-(2-pyridyl)piperidine-4-carbonitrile] | 47 | 54.5
14 | Cn1ncc2c(=O)[nH]c(N3CCN(c4ccc(C(C)(C)O)cc4F)CC3)nc21 [Compound I-44, 6-[4-[2-fluoro-4-(1-hydroxy-1-methyl-ethyl)phenyl]piperazin-1-yl]-1-methyl-5H-pyrazolo[3 4-d]pyrimidin-4-one] | 34 | 95.3

Source: patent US20130345215A1, “PYRAZOLOPYRIMIDONE AND PYRAZOLOPYRIDONE INHIBITORS OF TANKYRASE” (Genentech, Inc., priority 2012, published 2013)
